{"source": "the NIST ThermoML archive (doi:10.1016/j.jct.2016.03.035)", "assay": "xn = mol fraction of the nth substance listed", "conditions": "Gas, Buoyancy - hydrostatic balance with magnetic suspension - two sinkers", "note": "Where “and” joins values, the source holds several entries; their conditions need not be identical. Equal entries are not always repeated. ± gives the expanded uncertainty stated by the source."}
{"compound": "C", "note": "[methane] + CCC", "values": [{"measurement": "mass density", "setting": "293.15 K, 355.08 kPa, x1 = 0.2658", "result": "5.5657 ± 0.0049 kg/m3 and 5.5657 ± 0.0048 kg/m3"}, {"measurement": "mass density", "setting": "293.15 K, 393.88 kPa, x1 = 0.5069", "result": "4.9713 ± 0.0046 kg/m3 and 4.9715 ± 0.0047 kg/m3"}, {"measurement": "mass density", "setting": "293.15 K, 469.3 kPa, x1 = 0.2658", "result": "7.4651 ± 0.0053", "unit": "kg/m3"}, {"measurement": "mass density", "setting": "293.15 K, 568.76 kPa, x1 = 0.2658", "result": "9.1679 ± 0.0062", "unit": "kg/m3"}, {"measurement": "mass density", "setting": "293.15 K, 613.83 kPa, x1 = 0.5069", "result": "7.885 ± 0.0061 kg/m3 and 7.8849 ± 0.0063 kg/m3"}, {"measurement": "mass density", "setting": "293.15 K, 655.65 kPa, x1 = 0.2658", "result": "10.6965 ± 0.0066 kg/m3 and 10.6961 ± 0.0065 kg/m3"}, {"measurement": "mass density", "setting": "293.15 K, 803.71 kPa, x1 = 0.5069", "result": "10.4888 ± 0.0077", "unit": "kg/m3"}, {"measurement": "mass density", "setting": "293.15 K, 803.74 kPa, x1 = 0.5069", "result": "10.4889 ± 0.0076", "unit": "kg/m3"}, {"measurement": "mass density", "setting": "293.15 K, 803.76 kPa, x1 = 0.5069", "result": "10.4892 ± 0.0076", "unit": "kg/m3"}, {"measurement": "mass density", "setting": "293.15 K, 857.4 kPa, x1 = 0.2658", "result": "14.4071 ± 0.0082 kg/m3 and 14.4072 ± 0.0082 kg/m3"}, {"measurement": "mass density", "setting": "293.15 K, 955.25 kPa, x1 = 0.2658", "result": "16.2978 ± 0.0098 kg/m3 and 16.2977 ± 0.0097 kg/m3"}, {"measurement": "mass density", "setting": "293.15 K, 1006.2 kPa, x1 = 0.5069", "result": "13.3633 ± 0.0094", "unit": "kg/m3"}, {"measurement": "mass density", "setting": "293.15 K, 1105.7 kPa, x1 = 0.2658", "result": "19.3404 ± 0.01", "unit": "kg/m3"}, {"measurement": "mass density", "setting": "293.15 K, 1209.4 kPa, x1 = 0.5069", "result": "16.361 ± 0.012", "unit": "kg/m3"}, {"measurement": "mass density", "setting": "293.15 K, 1209.7 kPa, x1 = 0.5069", "result": "16.3642 ± 0.012", "unit": "kg/m3"}, {"measurement": "mass density", "setting": "293.15 K, 1399.6 kPa, x1 = 0.5069", "result": "19.2776 ± 0.012", "unit": "kg/m3"}, {"measurement": "mass density", "setting": "293.15 K, 1605.7 kPa, x1 = 0.5069", "result": "22.5751 ± 0.013", "unit": "kg/m3"}, {"measurement": "mass density", "setting": "293.15 K, 1605.8 kPa, x1 = 0.5069", "result": "22.5767 ± 0.013 kg/m3 and 22.5758 ± 0.013 kg/m3"}, {"measurement": "mass density", "setting": "293.15 K, 1807.2 kPa, x1 = 0.5069", "result": "25.9502 ± 0.014", "unit": "kg/m3"}, {"measurement": "mass density", "setting": "294.01 K, 1223.6 kPa, x1 = 0.2658", "result": "21.7481 ± 0.018", "unit": "kg/m3"}, {"measurement": "mass density", "setting": "294.04 K, 1223.7 kPa, x1 = 0.2658", "result": "21.7478 ± 0.018", "unit": "kg/m3"}, {"measurement": "mass density", "setting": "294.06 K, 1223.9 kPa, x1 = 0.2658", "result": "21.7477 ± 0.018", "unit": "kg/m3"}, {"measurement": "mass density", "setting": "294.09 K, 1224 kPa, x1 = 0.2658", "result": "21.7474 ± 0.018", "unit": "kg/m3"}, {"measurement": "mass density", "setting": "294.12 K, 1224.2 kPa, x1 = 0.2658", "result": "21.747 ± 0.018", "unit": "kg/m3"}, {"measurement": "mass density", "setting": "294.15 K, 1224.3 kPa, x1 = 0.2658", "result": "21.7472 ± 0.018", "unit": "kg/m3"}, {"measurement": "mass density", "setting": "294.18 K, 1224.5 kPa, x1 = 0.2658", "result": "21.7471 ± 0.018", "unit": "kg/m3"}, {"measurement": "mass density", "setting": "294.21 K, 1224.7 kPa, x1 = 0.2658", "result": "21.7472 ± 0.018", "unit": "kg/m3"}, {"measurement": "mass density", "setting": "294.25 K, 1224.9 kPa, x1 = 0.2658", "result": "21.7472 ± 0.018", "unit": "kg/m3"}, {"measurement": "mass density", "setting": "294.28 K, 1225.2 kPa, x1 = 0.2658", "result": "21.747 ± 0.018", "unit": "kg/m3"}, {"measurement": "mass density", "setting": "294.32 K, 1225.4 kPa, x1 = 0.2658", "result": "21.747 ± 0.018", "unit": "kg/m3"}, {"measurement": "mass density", "setting": "294.37 K, 1225.6 kPa, x1 = 0.2658", "result": "21.747 ± 0.018", "unit": "kg/m3"}, {"measurement": "mass density", "setting": "294.41 K, 1225.9 kPa, x1 = 0.2658", "result": "21.7466 ± 0.018", "unit": "kg/m3"}, {"measurement": "mass density", "setting": "294.46 K, 1226.2 kPa, x1 = 0.2658", "result": "21.7464 ± 0.018", "unit": "kg/m3"}, {"measurement": "mass density", "setting": "294.5 K, 1226.4 kPa, x1 = 0.2658", "result": "21.7465 ± 0.018", "unit": "kg/m3"}, {"measurement": "mass density", "setting": "294.56 K, 1226.7 kPa, x1 = 0.2658", "result": "21.7464 ± 0.018", "unit": "kg/m3"}, {"measurement": "mass density", "setting": "294.61 K, 1227 kPa, x1 = 0.2658", "result": "21.746 ± 0.018", "unit": "kg/m3"}, {"measurement": "mass density", "setting": "294.67 K, 1227.4 kPa, x1 = 0.2658", "result": "21.7447 ± 0.018", "unit": "kg/m3"}, {"measurement": "mass density", "setting": "294.74 K, 1227.7 kPa, x1 = 0.2658", "result": "21.744 ± 0.018", "unit": "kg/m3"}, {"measurement": "mass density", "setting": "294.81 K, 1228.1 kPa, x1 = 0.2658", "result": "21.7437 ± 0.018", "unit": "kg/m3"}, {"measurement": "mass density", "setting": "294.88 K, 1228.5 kPa, x1 = 0.2658", "result": "21.7435 ± 0.018", "unit": "kg/m3"}, {"measurement": "mass density", "setting": "294.95 K, 1228.9 kPa, x1 = 0.2658", "result": "21.743 ± 0.018", "unit": "kg/m3"}, {"measurement": "mass density", "setting": "295.11 K, 1229.9 kPa, x1 = 0.2658", "result": "21.7426 ± 0.018", "unit": "kg/m3"}, {"measurement": "mass density", "setting": "295.2 K, 1230.4 kPa, x1 = 0.2658", "result": "21.7417 ± 0.018", "unit": "kg/m3"}, {"measurement": "mass density", "setting": "295.29 K, 1230.9 kPa, x1 = 0.2658", "result": "21.741 ± 0.018", "unit": "kg/m3"}, {"measurement": "mass density", "setting": "295.39 K, 1231.4 kPa, x1 = 0.2658", "result": "21.7403 ± 0.018", "unit": "kg/m3"}, {"measurement": "mass density", "setting": "295.5 K, 1232 kPa, x1 = 0.2658", "result": "21.7395 ± 0.018", "unit": "kg/m3"}, {"measurement": "mass density", "setting": "295.6 K, 1232.6 kPa, x1 = 0.2658", "result": "21.7391 ± 0.018", "unit": "kg/m3"}, {"measurement": "mass density", "setting": "295.72 K, 1233.3 kPa, x1 = 0.2658", "result": "21.738 ± 0.018", "unit": "kg/m3"}, {"measurement": "mass density", "setting": "295.84 K, 1234 kPa, x1 = 0.2658", "result": "21.7373 ± 0.018", "unit": "kg/m3"}, {"measurement": "mass density", "setting": "295.97 K, 1234.7 kPa, x1 = 0.2658", "result": "21.7364 ± 0.018", "unit": "kg/m3"}, {"measurement": "mass density", "setting": "296.1 K, 1235.4 kPa, x1 = 0.2658", "result": "21.7356 ± 0.018", "unit": "kg/m3"}, {"measurement": "mass density", "setting": "296.24 K, 1236.2 kPa, x1 = 0.2658", "result": "21.7346 ± 0.018", "unit": "kg/m3"}, {"measurement": "mass density", "setting": "296.39 K, 1237 kPa, x1 = 0.2658", "result": "21.7335 ± 0.018", "unit": "kg/m3"}, {"measurement": "mass density", "setting": "296.55 K, 1237.9 kPa, x1 = 0.2658", "result": "21.7324 ± 0.019", "unit": "kg/m3"}, {"measurement": "mass density", "setting": "296.71 K, 1238.8 kPa, x1 = 0.2658", "result": "21.731 ± 0.018", "unit": "kg/m3"}, {"measurement": "mass density", "setting": "296.88 K, 1239.8 kPa, x1 = 0.2658", "result": "21.7302 ± 0.019", "unit": "kg/m3"}, {"measurement": "mass density", "setting": "297.07 K, 1240.8 kPa, x1 = 0.2658", "result": "21.7284 ± 0.019", "unit": "kg/m3"}, {"measurement": "mass density", "setting": "297.26 K, 1241.9 kPa, x1 = 0.2658", "result": "21.7273 ± 0.019", "unit": "kg/m3"}, {"measurement": "mass density", "setting": "297.45 K, 1243 kPa, x1 = 0.2658", "result": "21.7257 ± 0.019", "unit": "kg/m3"}, {"measurement": "mass density", "setting": "297.66 K, 1244.1 kPa, x1 = 0.2658", "result": "21.7254 ± 0.018", "unit": "kg/m3"}, {"measurement": "mass density", "setting": "297.86 K, 1245.3 kPa, x1 = 0.2658", "result": "21.7253 ± 0.018", "unit": "kg/m3"}, {"measurement": "mass density", "setting": "298.04 K, 1246.4 kPa, x1 = 0.2658", "result": "21.7265 ± 0.018", "unit": "kg/m3"}, {"measurement": "mass density", "setting": "298.15 K, 1247.3 kPa, x1 = 0.2658", "result": "21.7319 ± 0.019", "unit": "kg/m3"}]}
